The record followed here is PubChem BioAssay AID324 (DTP/NCI, 2004).

Each structure is given as a SMILES string. “And” between values parts separate entries of the source, which are not always exact repeats. Identical values can stand only once. Toxic doses and inconclusive results are not listed.

In the assay the test system is CD2F1 mice, AMSA-resistant P388 leukemia ip, median survival T/C. Put plainly: NCI In Vivo Anticancer Drug Screen. Data for tumor model P388 Leukemia resistant to AMSA; NSC 249992 (intraperitoneal) in CD2F1 (CDF1) mice. Conditions: endpoint: median survival time, higher = longer survival. The method, then: The antitumor activity of compounds was measured in mice bearing transplantable tumors. Survival or tumor size were measured and the results are expressed as the measurement made in the treated group (T) divided by the measurement made in the vehicle treated control group (C). The tumor model used in this assay is P388 Leukemia resistant to AMSA; NSC 249992 (intraperitoneal) in CD2F1 (CDF1) mice

[1] abbreviates: dose: 0.64 mg/kg/injection, schedule: Q04DX003 (ip), vehicle: water.
[2] abbreviates: dose: 1.08 mg/kg/injection, schedule: Q04DX003 (ip), vehicle: water.
The mark [3] stands for this setting: dose: 5.0 mg/kg/injection, schedule: Q04DX003 (ip), vehicle: water.
Setting [4] is: dose: 0.97 mg/kg/injection, schedule: Q04DX003 (ip), vehicle: saline.
The mark [5] stands for this setting: dose: 1.62 mg/kg/injection, schedule: Q04DX003 (ip), vehicle: saline.
The mark [6] stands for this setting: dose: 4.5 mg/kg/injection, schedule: Q04DX003 (ip), vehicle: saline.
Setting [7] is: dose: 4.32 mg/kg/injection, schedule: Q04DX003 (ip), vehicle: water.

Turning to `CCC1(O)CC(OC2CC(N(C)C)C(OC3CC4OC5CC(=O)C(C)OC5OC4C(C)O3)C(C)O2)c2c(cc3c(c2O)C(=O)c2c(O)ccc(O)c2C3=O)C1C(=O)OC` (centres undefined), the T/C under setting [1] was 108 % of control; the T/C (dose: 0.86 mg/kg/injection, schedule: Q04DX003 (ip), vehicle: water) was 112 % of control; the T/C under setting [2] is 107 % of control; the T/C (dose: 1.44 mg/kg/injection, schedule: Q04DX003 (ip), vehicle: water) was 115 % of control; the T/C (dose: 1.8 mg/kg/injection, schedule: Q04DX003 (ip), vehicle: water) is 117 % of control; the T/C (dose: 2.4 mg/kg/injection, schedule: Q04DX003 (ip), vehicle: water) was 124 % of control. For the same molecule, the T/C under setting [3] was 113 % of control.

With `COc1cccc2c1C(=O)c1c(O)c3c(c(O)c1C2=O)C[C@@](O)(C(=O)CO)C[C@@H]3OC1CC(N)C(O)C(C)O1` (some centres undefined), the T/C is 118 % of control and 124 % of control under setting [4]; 109 % of control and 86 % of control (dose: 1.3 mg/kg/injection, schedule: Q04DX002 (ip), vehicle: saline); 121 % of control under setting [5]; 104 % of control (dose: 2.16 mg/kg/injection, schedule: Q04DX002 (ip), vehicle: saline); 122 % of control (dose: 2.7 mg/kg/injection, schedule: Q04DX003 (ip), vehicle: saline); 152 % of control under setting [6]. For the setting “dose: 6.0 mg/kg/injection, schedule: Q04DX002 (ip), vehicle: saline”, the T/C is 90 % of control.

In the case of `CCC1(O)CC2CN(CCc3c([nH]c4ccccc34)C(C(=O)OC)(c3cc4c(cc3OC)N(C)C3C(O)(C(N)=O)C(O)C5(CC)C=CCN6CCC43C65)C2)C1` (centres undefined) (tested in a mixture with another compound), the T/C reads like this: (dose: 0.5 mg/kg/injection, schedule: Q04DX003 (ip), vehicle: clinical formulation) 150 % of control; (dose: 0.83 mg/kg/injection, schedule: Q04DX003 (ip), vehicle: clinical formulation) 162 % of control.

In the case of `C[n+]1ccc(Nc2ccc(NC(=O)c3ccc(Nc4cc[n+](C)c5ccc(N)cc45)cc3)cc2)cc1`, the T/C (dose: 1.73 mg/kg/injection, schedule: Q04DX003 (ip), vehicle: water) is 155 % of control; the T/C (dose: 4.8 mg/kg/injection, schedule: Q04DX003 (ip), vehicle: water) was 154 % of control; the T/C (dose: 8.0 mg/kg/injection, schedule: Q04DX003 (ip), vehicle: water) is 182 % of control.

In the case of `CN(Cc1cnc2nc(N)nc(N)c2n1)c1ccc(C(=O)N[C@@H](CCC(=O)O)C(=O)O)cc1`, the T/C (dose: 3.0 mg/kg/injection, schedule: Q01DX005 (ip), vehicle: sodium bicarbonate) was 173 % of control; the T/C (dose: 3.5 mg/kg/injection, schedule: Q01DX005 (ip), vehicle: sodium bicarbonate) is 171 % of control; the T/C (dose: 4.0 mg/kg/injection, schedule: Q01DX005 (ip), vehicle: sodium bicarbonate) is 164 % of control; the T/C (dose: 4.5 mg/kg/injection, schedule: Q01DX005 (ip), vehicle: sodium bicarbonate) was 177 % of control; the T/C (dose: 6.48 mg/kg/injection, schedule: Q04DX003 (ip), vehicle: sodium bicarbonate) is 165 % of control; the T/C (dose: 10.8 mg/kg/injection, schedule: Q04DX003 (ip), vehicle: sodium bicarbonate) was 180 % of control. Further, the T/C reads like this: (dose: 18.0 mg/kg/injection, schedule: Q04DX003 (ip), vehicle: sodium bicarbonate) 196 % of control; (dose: 30.0 mg/kg/injection, schedule: Q04DX003 (ip), vehicle: sodium bicarbonate) 114 % of control; (dose: 50.0 mg/kg/injection, schedule: Q04DX003 (ip), vehicle: sodium bicarbonate) 98 % of control.

For the molecule `CC[C@@]1(O)C[C@H](OC2CC(N(C)C)C(OC3CC(O)C(OC4CCC(=O)C(C)O4)C(C)O3)C(C)O2)c2c(cc3c(c2O)C(=O)c2c(O)ccc(O)c2C3=O)[C@H]1C(=O)OC` (some centres undefined), the T/C is, setting by setting: under setting [7], 153 % of control and 158 % of control; (dose: 7.2 mg/kg/injection, schedule: Q04DX003 (ip), vehicle: water) 123 % of control and 219 % of control.

`CCN(CC)C1CC(O[C@H]2C[C@](O)(C(C)=O)Cc3c(O)c4c(c(O)c32)C(=O)c2c(OC)cccc2C4=O)OC(C)C1O` (some centres undefined): the T/C was 117 % of control under setting [7] and 166 % of control (dose: 20.0 mg/kg/injection, schedule: Q04DX003 (ip), vehicle: water).

Consider `COc1cccc2c1C(=O)c1c(O)c3c(c(O)c1C2=O)C[C@@](O)(C(C)=O)C[C@@H]3OC1CC(N)C(O)C(C)O1` (some centres undefined), for which the T/C runs as follows: under setting [1], 115 % of control; (dose: 0.65 mg/kg/injection, schedule: Q04DX003 (ip), vehicle: saline) 103 % of control; under setting [4], 121 % of control; (dose: 1.08 mg/kg/injection, schedule: Q04DX003 (ip), vehicle: saline) 115 % of control; under setting [2], 118 % of control; under setting [5], 123 % of control. Moreover, the T/C reads like this: (dose: 1.8 mg/kg/injection, schedule: Q04DX003 (ip), vehicle: saline) 124 % of control; (dose: 3.0 mg/kg/injection, schedule: Q04DX003 (ip), vehicle: saline) 117 % of control; (dose: 3.0 mg/kg/injection, schedule: Q04DX003 (ip), vehicle: water) 123 % of control; under setting [6], 119 % of control; under setting [3], 123 % of control.

Take `COc1cc(NS(C)(=O)=O)ccc1Nc1c2ccccc2nc2cc(C(F)(F)F)c(N)cc12`: the T/C is 106 % of control (dose: 13.0 mg/kg/injection, schedule: Q04DX003 (ip), vehicle: distilled water + Tween-80); 103 % of control (dose: 21.6 mg/kg/injection, schedule: Q04DX003 (ip), vehicle: distilled water + Tween-80); 104 % of control (dose: 36.0 mg/kg/injection, schedule: Q04DX003 (ip), vehicle: distilled water + Tween-80); 108 % of control (dose: 60.0 mg/kg/injection, schedule: Q04DX003 (ip), vehicle: distilled water + Tween-80); 114 % of control (dose: 64.8 mg/kg/injection, schedule: Q04DX002 (ip), vehicle: water); 103 % of control (dose: 100.0 mg/kg/injection, schedule: Q04DX003 (ip), vehicle: distilled water + Tween-80).

Consider `CO[C@H]1C[C@](C)(O)Cc2cc3c(c(O)c21)C(=O)c1c(O)cc2c(c1C3=O)O[C@@H]1O[C@@]2(C)[C@H](O)[C@@H](N(C)C)[C@@H]1O`, for which the T/C by setting is: (dose: 6.48 mg/kg/injection, schedule: Q04DX003 (ip), vehicle: other) 111 % of control; (dose: 10.8 mg/kg/injection, schedule: Q04DX003 (ip), vehicle: other) 114 % of control; (dose: 18.0 mg/kg/injection, schedule: Q04DX003 (ip), vehicle: other) 110 % of control; (dose: 30.0 mg/kg/injection, schedule: Q04DX003 (ip), vehicle: other) 102 % of control.

For the molecule `COc1cccc2c1C(=O)c1c(O)c3c(c(O)c1C2=O)C[C@@](O)(C(C)=O)C[C@@H]3OC1CC(NCc2ccccc2)C(O)C(C)O1` (some centres undefined), the T/C (dose: 6.48 mg/kg/injection, schedule: Q04DX003 (ip), vehicle: water) is 113 % of control; the T/C (dose: 10.8 mg/kg/injection, schedule: Q04DX003 (ip), vehicle: water) is 117 % of control; the T/C (dose: 18.0 mg/kg/injection, schedule: Q04DX003 (ip), vehicle: water) is 104 % of control.

As for `CN(C)c1ccc(Nc2c3ccccc3nc3ccccc23)cc1`, the T/C is, setting by setting: (dose: 13.0 mg/kg/injection, schedule: Q04DX003 (ip), vehicle: saline with Tween-80) 100 % of control; (dose: 21.6 mg/kg/injection, schedule: Q04DX003 (ip), vehicle: saline with Tween-80) 98 % of control; (dose: 25.9 mg/kg/injection, schedule: Q04DX003 (ip), vehicle: saline) 101 % of control; (dose: 36.0 mg/kg/injection, schedule: Q04DX003 (ip), vehicle: saline with Tween-80) 96 % of control; (dose: 43.2 mg/kg/injection, schedule: Q04DX003 (ip), vehicle: saline) 104 % of control; (dose: 60.0 mg/kg/injection, schedule: Q04DX003 (ip), vehicle: saline with Tween-80) 100 % of control. Also, the T/C is, setting by setting: (dose: 72.0 mg/kg/injection, schedule: Q04DX003 (ip), vehicle: saline) 100 % of control; (dose: 100.0 mg/kg/injection, schedule: Q04DX003 (ip), vehicle: saline with Tween-80) 103 % of control.
